In patent US12077503B2, “Substituted cyclic amides and their use as herbicides” (FMC CORPORATION, priority 2015, dated 2024):
Read-outs that look alike come from different tables or passages of the source.

Experiments:
Format in all cases: in vivo
[1] = tested on: pigweed (Amaranthus retroflexus); assay: Test A preemergence; conditions: Amaranthus retroflexus, pre-emergence, 240 h; for pest or weed control at 125 g/ha: 125 g ai/ha, Preemergence, visual injury rating after approximately 10 d, read-out: Pigweed plant response rating (0 to 100 scale, 0 is no effect, 100 is complete control); for pest or weed control at 500 g/ha: 500 g ai/ha, preemergence, visual injury rating about 10 d after treatment, 0 to 100 scale (0 no effect, 100 complete control), read-out: Pigweed plant response rating
[2] = tested on: ryegrass, Italian (Italian ryegrass, Lolium multiflorum); assay: Test A preemergence; conditions: Lolium multiflorum, pre-emergence, 240 h; for pest or weed control at 125 g/ha: 125 g ai/ha, Preemergence, visual injury rating after approximately 10 d, read-out: Ryegrass, Italian plant response rating (0 to 100 scale, 0 is no effect, 100 is complete control); for pest or weed control at 500 g/ha: 500 g ai/ha, preemergence, visual injury rating about 10 d after treatment, 0 to 100 scale (0 no effect, 100 complete control), read-out: Ryegrass, Italian plant response rating
Outline: (§1)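 In a loam soil and sand blend, planted seeds got a preemergence directed soil spray, and young plants at the one- to two-leaf stage, 2–10 cm high, got a postemergence application; ~10 d greenhouse hold; injury rated visually, 0 = none, 100 = complete control.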

[3] = tested on: barnyardgrass (Echinochloa crus-galli); assay: Test A preemergence; conditions: Echinochloa crus-galli, pre-emergence, 240 h; for pest or weed control at 125 g/ha: 125 g ai/ha, Preemergence, visual injury rating after approximately 10 d, read-out: Barnyardgrass plant response rating (0 to 100 scale, 0 is no effect, 100 is complete control); for pest or weed control at 500 g/ha: 500 g ai/ha, preemergence, visual injury rating about 10 d after treatment, 0 to 100 scale (0 no effect, 100 complete control), read-out: Barnyardgrass plant response rating
Outline: as §1

[4] = tested on: Kochia (Kochia scoparia); assay: Test A preemergence; conditions: Bassia scoparia, pre-emergence, 240 h; for pest or weed control at 125 g/ha: 125 g ai/ha, Preemergence, visual injury rating after approximately 10 d, read-out: Kochia plant response rating (0 to 100 scale, 0 is no effect, 100 is complete control); for pest or weed control at 500 g/ha: 500 g ai/ha, preemergence, visual injury rating about 10 d after treatment, 0 to 100 scale (0 no effect, 100 complete control), read-out: Kochia plant response rating
Outline: as §1

[5] = tested on: ragweed (common ragweed, Ambrosia elatior); assay: Test A preemergence; conditions: Ambrosia artemisiifolia, pre-emergence, 240 h; for pest or weed control at 500 g/ha: 500 g ai/ha, preemergence, visual injury rating about 10 d after treatment, 0 to 100 scale (0 no effect, 100 complete control), read-out: Ragweed plant response rating
Outline: as §1

[6] = tested on: giant foxtail (Setaria faberii); assay: Test A preemergence; conditions: Setaria faberi, pre-emergence, 240 h; for pest or weed control at 125 g/ha: 125 g ai/ha, Preemergence, visual injury rating after approximately 10 d, read-out: Foxtail, Giant plant response rating (0 to 100 scale, 0 is no effect, 100 is complete control); for pest or weed control at 500 g/ha: 500 g ai/ha, preemergence, visual injury rating about 10 d after treatment, 0 to 100 scale (0 no effect, 100 complete control), read-out: Foxtail, Giant plant response rating
Outline: as §1

[7] = tested on: corn (Zea mays); assay: Test A postemergence; conditions: Zea mays, post-emergence, 240 h, 125 g ai/ha, Postemergence; visual injury after approximately 10 d; 0 to 100 scale where 0 is no effect and 100 is complete control
Outline: as §1

[8] = tested on: pigweed (Amaranthus retroflexus); assay: Test A postemergence; conditions: Amaranthus retroflexus, post-emergence, 240 h, 125 g ai/ha, Postemergence; visual injury after approximately 10 d; 0 to 100 scale where 0 is no effect and 100 is complete control; read-out: Plant response rating, Pigweed
Outline: as §1

[9] = tested on: blackgrass (Alopecurus myosuroides); assay: Test A postemergence; conditions: Alopecurus myosuroides, post-emergence, 240 h, 125 g ai/ha, Postemergence; visual injury after approximately 10 d; 0 to 100 scale where 0 is no effect and 100 is complete control; read-out: Plant response rating, Blackgrass
Outline: as §1

[10] = tested on: ryegrass, Italian (Italian ryegrass, Lolium multiflorum); assay: Test A postemergence; conditions: Lolium multiflorum, post-emergence, 240 h, 125 g ai/ha, Postemergence; visual injury after approximately 10 d; 0 to 100 scale where 0 is no effect and 100 is complete control; read-out: Plant response rating, Ryegrass, Italian
Outline: as §1

[11] = tested on: Kochia (Kochia scoparia); assay: Test A postemergence; conditions: Bassia scoparia, post-emergence, 240 h, 125 g ai/ha, Postemergence; visual injury after approximately 10 d; 0 to 100 scale where 0 is no effect and 100 is complete control; read-out: Plant response rating, Kochia
Outline: as §1

[12] = tested on: ragweed (common ragweed, Ambrosia elatior); assay: Test A postemergence; conditions: Ambrosia artemisiifolia, post-emergence, 240 h, 125 g ai/ha, Postemergence; visual injury after approximately 10 d; 0 to 100 scale where 0 is no effect and 100 is complete control; read-out: Plant response rating, Ragweed
Outline: as §1

[13] = tested on: giant foxtail (Setaria faberii); assay: Test A postemergence; conditions: Setaria faberi, post-emergence, 240 h, 125 g ai/ha, Postemergence; visual injury after approximately 10 d; 0 to 100 scale where 0 is no effect and 100 is complete control; read-out: Plant response rating, Foxtail, Giant
Outline: as §1

[14] = tested on: wheat (Triticum aestivum); assay: Test A postemergence; conditions: Triticum aestivum, post-emergence, 240 h, 125 g ai/ha, Postemergence; visual injury after approximately 10 d; 0 to 100 scale where 0 is no effect and 100 is complete control; read-out: Plant response rating, Wheat
Outline: as §1

[15] = tested on: rice (Oryra sativa); assay: Test B flooded paddy test; conditions: Oryza sativa, Flood, 250 g ai/ha; scale of 0 to 100 where 0 is no effect and 100 is complete control; read-out: Rice plant response rating
Outline: (§2)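 2-leaf plants; pots flooded 3 cm over soil; cpd added to paddy water; depth held; greenhouse 13–15 d; visual rating vs controls, 0 = no effect, 100 = complete control.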

[16] = tested on: sedge, umbrella (small-flower umbrella sedge, Cyperus difformis); assay: Test B flooded paddy test; conditions: Cyperus difformis, Flood, 250 g ai/ha, read-out: Sedge, Umbrella plant response rating
Outline: as §2

[17] = tested on: barnyardgrass (Echinochloa crus-galli); assay: Test B flooded paddy test; conditions: Echinochloa crus-galli, Flood, 250 g ai/ha; scale of 0 to 100 where 0 is no effect and 100 is complete control; read-out: Barnyardgrass plant response rating
Outline: as §2

[18] = tested on: ducksalad (Heteranthera limosa); assay: Test B flooded paddy test; conditions: Heteranthera limosa, Flood, 250 g ai/ha; scale of 0 to 100 where 0 is no effect and 100 is complete control; read-out: Ducksalad plant response rating
Outline: as §2

[19] = tested on: barnyardgrass (Echinochloa crus-galli); assay: Test A postemergence; conditions: Echinochloa crus-galli, post-emergence, 240 h, 125 g ai/ha, Postemergence; visual injury after approximately 10 d; 0 to 100 scale where 0 is no effect and 100 is complete control; read-out: Plant response rating, Barnyardgrass
Outline: as §1

[20] = tested on: Galium (catchweed bedstraw, Galium aparine); assay: Test A postemergence; conditions: Galium, post-emergence, 240 h, 125 g ai/ha, Postemergence; visual injury after approximately 10 d; 0 to 100 scale where 0 is no effect and 100 is complete control; read-out: Plant response rating, Galium
Outline: as §1

SMILES	pest or weed control at 125 g/ha [1]	pest or weed control at 500 g/ha [1]	pest or weed control at 125 g/ha [2]	pest or weed control at 500 g/ha [2]	pest or weed control at 125 g/ha [3]	pest or weed control at 500 g/ha [3]	pest or weed control at 125 g/ha [4]	pest or weed control at 500 g/ha [4]	pest or weed control at 500 g/ha [5]	pest or weed control at 125 g/ha [6]	pest or weed control at 500 g/ha [6]	Corn plant response rating (crop injury, 0 = no effect, 100 = complete kill) at 125 g/ha [7]	pest or weed control at 125 g/ha [8]	pest or weed control at 125 g/ha [9]	pest or weed control at 125 g/ha [10]	pest or weed control at 125 g/ha [12]	pest or weed control at 125 g/ha [13]	plant injury at 125 g/ha [14]	pest or weed control at 250 g/ha [15]	pest or weed control at 250 g/ha [17]	also measured
Cc1ccc([C@H]2CN(C)C(=O)[C@@H]2C(=O)Nc2cccc(F)c2C)cc1F [Compound 982]	0%	50%	90%	90%	90%	90%	50%	90%	80%	90%	100%	60%	0%	70%	60%	20%	90%	70%	20%	75%	pest or weed control at 125 g/ha [11]: 50%; pest or weed control at 250 g/ha ([16]; scale of 0 to 100 where 0 is no effect and 100 is complete control): 0%; pest or weed control at 250 g/ha [18]: 100%
CC(=O)Oc1ccc(NC(=O)[C@H]2C(=O)N(C)C[C@@H]2c2cc(F)cc(F)c2)c(F)c1 [Compound 996]	0%	0%	0%	0%	0%	0%	0%	0%	0%	0%	0%	0%	0%	0%	0%	0%	0%	0%	0%	0%	pest or weed control at 125 g/ha ([5]; 125 g ai/ha, Preemergence, visual injury rating after approximately 10 d, read-out: Ragweed plant response rating (0 to 100 scale, 0 is no effect, 100 is complete control)): 0%; pest or weed control at 125 g/ha [19]: 0%; pest or weed control at 125 g/ha [20]: 0%; pest or weed control at 250 g/ha ([16]; 0 to 100 scale where 0 is no effect and 100 is complete control): 0%; pest or weed control at 250 g/ha [18]: 70%
